Data taken from US6603046B1, “Bis-aromatic a,β-unsaturated ketones” (Lica Pharmaceuticals A/S, priority 1992, dated 2003).
In brackets after ≈: the same amount, converted by molar mass. Several values for one entry are separate records, joined by “and”; a condition that tells them apart may be missing. Equal values may be shown once. Read-outs that look alike come from different tables or passages of the source.

How the values were obtained:
[1] = tested on: P. yoelii strain YM; test: P. yoelii strain YM infection in mice, parasitemia and mortality (Example 16); assay type: in vivo, BALB/c mice; settings: for % parasitemia, Mean: orally 100 mg/kg/dose 3 and 24 h after infection
[2] = tested on: Strain = H37RV; test: MIC with and without 10% human serum; assay type: cell-based; settings: for MIC: Mycobacterium tuberculosis, H37RV
[3] = tested on: L. gormanii; test: microbe, parasite or virus in culture; assay type: cell-based; settings: Fluoribacter gormanii
[4] = tested on: L. major promastigotes; test: Electron microscopy of L. major promastigotes (Example 11); assay type: cell-based, Leishmania major; settings: for diameter of mitochondria, Maximum (mean) / diameter of mitochondria, Minimum (mean): 24 hours
[5] = tested on: M. tuberculosis; test: Radiometric MIC/MBC (Example 19); assay type: cell-based
Protocol: 63 strains of mycobacteria were used in this study. The bacteria were grown in Dubos broth media before susceptibility testing. Licochalcone A was isolated as described in Example 1. Licochalcone A was dissolved in dimethyl sulfoxide (DMSO) and diluted in distilled water to the desired concentration.
Susceptibility testing was performed radiometrically by using a BECTEC 460-TB apparatus (Becton Dickinson) in a confined atmosphere (5% CO2). […] The growth was expressed as a numerical value called the growth index (GI) which ranged from 1 to 999. The 7H12 vials were inoculated with 0.1 ml of an appropriately diluted Dubos broth culture to give a final inoculum of about 5×10^4 colony-forming units (CFU) per ml together with 0.1 ml of different concentrations of licochalcone A. The final concentrations of licochalcone A tested ranged from 1.25 μg/ml to 80 μg/ml. A vial without licochalcone A, but with an inoculum diluted 1:100, was included as a control. The final inoculum was determinate by culturing 0.1 ml from the control vial onto one Lowenstein-Jensen slant. The vials were incubated under stationary conditions at 35° C. and growth was monitored by daily GI determination for 7 days. At day 7, 0.1 ml from each vial with a GI reading <30 was cultured onto one Lowenstein-Jensen slant. Colony counts were enumerated after incubation at 35° C. for 3 weeks.

[6] = D + 11, 10 mg per kg twice daily days +1 to +4
[7] = D + 12, 10 mg per kg twice daily days +1 to +4
[8] = D + 12, i.p. 10 mg/kg twice daily D-1, D0
[9] = D + 14, i.p. 10 mg/kg twice daily D-1, D0
[10] = D + 15, 10 mg per kg twice daily days +1 to +4
[11] = D + 16, 10 mg per kg twice daily days +1 to +4
[12] = D + 16, i.p. 10 mg/kg four times daily D + 4 to D + 7
[13] = D + 16, i.p. 10 mg/kg twice daily D-1, D0
[14] = D + 17, 10 mg per kg twice daily days +1 to +4
[15] = D + 18, i.p. 10 mg/kg four times daily D + 4 to D + 7
[16] = D + 18, i.p. 10 mg/kg twice daily D-1, D0
[17] = D + 20, i.p. 10 mg/kg four times daily D + 4 to D + 7
[18] = D + 20, i.p. 10 mg/kg twice daily D-1, D0

C=CC(C)(C)c1cc(/C=C/C(=O)c2ccc(O)cc2)c(OC)cc1O [Licochalcone A, licochalcone A]
% parasitemia, Mean ([1]; D + 10): 43% | Parasitemia, mean [1, 6]: 37.0% | Parasitemia, single mice [1, 6]: 33.0% and 41.0% | Parasitemia, single mice ([1]; D + 11, 40 mg/kg/day in 2 injections, days +1 to +6, 40 mg/kg/day): 51.0% | Parasitemia, mean [1, 7]: 74.0% | Parasitemia, single mice [1, 7]: 80.0% and 68.0% | % parasitemia (mean ± SEM) ([1]; D + 12, 10 mg/kg/day twice daily, 3 h after infection, D + 1 to D + 5): 14.4 ± 8.9% | % parasitemia (mean ± SEM) ([1]; D + 12, 15 mg/kg/day twice daily, 3 h after infection, D + 1 to D + 5): 0% | mortality (no. of dead mice/total no. of tested mice) ([1]; D + 12, i.p. 5 mg/kg/day twice daily to D + 3): (5/5) | % parasitemia (mean ± SEM) ([1]; D + 12, i.p. 10 mg/kg four times daily D + 4 to D + 7): 50.4 ± 15.6% | % parasitemia (mean ± SEM) [1, 8]: 55.7 ± 48.4% | mortality (no. of dead mice/total no. of tested mice) [1, 8]: 2/5 | mortality (no. of dead mice/total no. of tested mice) ([1]; D + 12, i.p. 10 mg/kg/day twice daily to D + 3): 4/5 | % parasitemia (mean ± SEM) ([1]; D + 12, i.p. 10 mg/kg/day twice daily, 3 h after infection and D + 1 to D + 3): 82% | mortality (no. of dead mice/total no. of tested mice) ([1]; D + 12, i.p. 15 mg/kg/day twice daily to D + 3): (1/5) | % parasitemia (mean ± SEM) ([1]; D + 12, i.p. 15 mg/kg/day twice daily, 3 h after infection and D + 1 to D + 3): 4.8 ± 3.2% | Parasitemia, mean ([1]; D + 13, 10 mg per kg twice daily days +1 to +4): 50.0% | % parasitemia, Mean ([1]; D + 13): 6.5% | Parasitemia, mean ([1]; D + 14, 10 mg per kg twice daily days +1 to +4): 35.0% | mortality (no. of dead mice/total no. of tested mice) ([1]; D + 14, 10 mg/kg/day twice daily to D + 5): 1/5 | % parasitemia (mean ± SEM) ([1]; D + 14, 10 mg/kg/day twice daily, 3 h after infection, D + 1 to D + 5): 17 ± 17% | % parasitemia (mean ± SEM) ([1]; D + 14, 15 mg/kg/day twice daily, 3 h after infection, D + 1 to D + 5): 0% | % parasitemia (mean ± SEM) ([1]; D + 14, i.p. 10 mg/kg four times daily D + 4 to D + 7): 58.6 ± 9.0% | % parasitemia (mean ± SEM) [1, 9]: 0% | mortality (no. of dead mice/total no. of tested mice) [1, 9]: 4/5 | mortality (no. of dead mice/total no. of tested mice) ([1]; D + 14, i.p. 10 mg/kg/day twice daily to D + 3): (5/5) | mortality (no. of dead mice/total no. of tested mice) ([1]; D + 14, i.p. 15 mg/kg/day twice daily to D + 3): 1/5 | % parasitemia (mean ± SEM) ([1]; D + 14, i.p. 15 mg/kg/day twice daily, 3 h after infection and D + 1 to D + 3): 0% | Parasitemia, mean [1, 10]: 2.0% | Parasitemia, single mice [1, 10]: 2.0% | Parasitemia, mean [1, 11]: 0.3% | Parasitemia, single mice [1, 11]: 0.5% and 0.1% | mortality (no. of dead mice/total no. of tested mice) ([1]; D + 16, 10 mg/kg/day twice daily to D + 5): 2/5 | % parasitemia (mean ± SEM) ([1]; D + 16, 10 mg/kg/day twice daily, 3 h after infection, D + 1 to D + 5): 0% | % parasitemia (mean ± SEM) ([1]; D + 16, 15 mg/kg/day twice daily, 3 h after infection, D + 1 to D + 5): 0% | % parasitemia (mean ± SEM) [1, 12]: 75.8 ± 6.6% | mortality (no. of dead mice/total no. of tested mice) [1, 12]: 1/5 | % parasitemia (mean ± SEM) [1, 13]: 0% | mortality (no. of dead mice/total no. of tested mice) [1, 13]: 4/5 | % parasitemia, Mean ([1]; D + 16): 0% | Parasitemia, mean [1, 14]: 0.0% | Parasitemia, single mice [1, 14]: 0.0% | mortality (no. of dead mice/total no. of tested mice) ([1]; D + 18, 10 mg/kg/day twice daily to D + 5): 2/5 | % parasitemia (mean ± SEM) ([1]; D + 18, 10 mg/kg/day twice daily, 3 h after infection, D + 1 to D + 5): 0% | % parasitemia (mean ± SEM) ([1]; D + 18, 15 mg/kg/day twice daily, 3 h after infection, D + 1 to D + 5): 0% | % parasitemia (mean ± SEM) [1, 15]: 53 ± 25% | mortality (no. of dead mice/total no. of tested mice) [1, 15]: 2/5 | % parasitemia (mean ± SEM) [1, 16]: 0% | mortality (no. of dead mice/total no. of tested mice) [1, 16]: 4/5 | % parasitemia (mean ± SEM) [1, 17]: 19 ± 9.7% | mortality (no. of dead mice/total no. of tested mice) [1, 17]: 3/5 | % parasitemia (mean ± SEM) [1, 18]: 0% | mortality (no. of dead mice/total no. of tested mice) [1, 18]: 4/5 | increase of MIC when supplemented with 10% of serum [2]: 8 fold | MIC ([2]; read-out: MIC+serum): 40 µg/mL (≈ 118 µM) | MIC ([2]; read-out: MIC−serum): 5 µg/mL (≈ 14.8 µM) | MIC [3]: 500 µg/mL (≈ 1480 µM) | morphological changes of promastigotes ([4]; 1 μg/ml): no morphological changes | diameter of mitochondria, Maximum (mean) ([4]; 1 μg/ml): 203 nm | diameter of mitochondria, Minimum (mean) ([4]; 1 μg/ml): 104 nm | diameter of mitochondria, Maximum (mean) ([4]; 5 μg/ml): 548 nm | diameter of mitochondria, Minimum (mean) ([4]; 5 μg/ml): 165 nm | percentage of L. major showing cytoplasmic granules ([4]; 5 μg/ml, control 50%): 70% | diameter of mitochondria, Maximum (mean) ([4]; 10 μg/ml): 1043 nm | diameter of mitochondria, Minimum (mean) ([4]; 10 μg/ml): 294 nm | meanMIC (second line) ([5]; n = 2): meanMIC = 40 μg/ml (n = 2) | meanMIC ([5]; n = 19): meanMIC = 7.1 μg/ml | rangeMIC ([5]; n = 19): rangeMIC = 5-10 μg/ml (n = 19)
